From US8895504B2, “Amylin derivatives” (priority 2008, dated 2014)
*1 amine or outer side, *2 acyl side, *3 side chain or, on linkers, in order; H or OH if unused. Where a SMILES comes first, the peptide text is derived from it. Bridges are numbered along the chain shown (N, C = ends). The star is where a group is joined. C20 diacid = O=C(O)CCCCCCCCCCCCCCCCCCC(=O)*; γGlu = O=C(O)[C@H](CCC(=O)[*:2])N[*:1]; AEEA = NCCOCCOCC(=O)O

Target: T1, Amylin 3(a) receptor (human calcitonin receptor (CTa) and RAMP-3) (Homo sapiens, UniProt O60896+P30988)
T1 construct: expressed in transfected cells; host or cells: BHK570 cells, stably transfected with a CRE-luciferase reporter
Experiment: Luciferase assay (III), BHK Amylin 3(a)//CRE-luc cells
Assay type: cell-based
Details: BHK cells with Amylin 3(a) receptor and CRE luciferase reporter, 4 hours incubation; read-out: Potency Luciferase
Outline: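 Read-out is CRE-driven luciferase luminescence, taken 30 min after LucLite addition at room temperature. Compounds were incubated 4 h at 37° C in assay medium (10% FBS, 10 mM Hepes, pH 7,4). The cell line is BHK570 co-transfected with human calcitonin receptor CTa and RAMP-3, seeded overnight before use.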

T1 sequence (O60896 24-148): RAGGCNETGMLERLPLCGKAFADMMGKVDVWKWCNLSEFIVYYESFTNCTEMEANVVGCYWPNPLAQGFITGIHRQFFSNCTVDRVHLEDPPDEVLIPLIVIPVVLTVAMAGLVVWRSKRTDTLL
T1 sequence (P30988 25-474): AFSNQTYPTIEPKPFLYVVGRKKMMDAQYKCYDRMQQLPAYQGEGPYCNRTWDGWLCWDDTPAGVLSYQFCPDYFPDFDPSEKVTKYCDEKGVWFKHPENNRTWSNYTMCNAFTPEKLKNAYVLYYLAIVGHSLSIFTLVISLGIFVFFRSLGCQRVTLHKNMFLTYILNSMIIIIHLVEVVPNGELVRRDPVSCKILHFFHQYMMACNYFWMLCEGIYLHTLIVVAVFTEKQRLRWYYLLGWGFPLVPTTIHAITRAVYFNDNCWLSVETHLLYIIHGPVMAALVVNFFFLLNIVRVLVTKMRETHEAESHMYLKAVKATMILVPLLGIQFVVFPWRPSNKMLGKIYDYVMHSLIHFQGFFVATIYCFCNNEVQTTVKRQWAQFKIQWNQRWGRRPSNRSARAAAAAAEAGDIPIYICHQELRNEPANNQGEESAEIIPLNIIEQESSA

SMILES	EC50
CC[C@H](C)[C@H](NC(=O)[C@@H]1CCCN1C(=O)CNC(=O)[C@H](Cc1ccccc1)NC(=O)[C@H](CC(N)=O)NC(=O)[C@H](CC(N)=O)NC(=O)[C@H](CO)NC(=O)[C@H](CO)NC(=O)[C@H](Cc1c[nH]cn1)NC(=O)[C@H](CO)NC(=O)[C@H](CC(C)C)NC(=O)[C@H](Cc1ccccc1)NC(=O)[C@H](CC(N)=O)NC(=O)[C@H](C)NC(=O)[C@H](CC(C)C)NC(=O)[C@H](CCCNC(=N)N)NC(=O)[C@H](CCC(N)=O)NC(=O)[C@@H](NC(=O)[C@H](C)NC(=O)[C@@H]1CSSC[C@H](NC(=O)CC[C@H](NC(=O)CCCCCCCCCCCCCCCCCCC(=O)O)C(=O)O)C(=O)N[C@@H](CC(N)=O)C(=O)N[C@@H]([C@@H](C)O)C(=O)N[C@@H](C)C(=O)N[C@@H]([C@@H](C)O)C(=O)N1)[C@@H](C)O)C(=O)N[C@@H](CC(C)C)C(=O)N1CCC[C@H]1C(=O)N1CCC[C@H]1C(=O)N[C@H](C(=O)N[C@@H](CC(N)=O)C(=O)N[C@H](C(=O)NCC(=O)N[C@@H](CO)C(=O)N[C@@H](CC(N)=O)C(=O)N[C@H](C(=O)N[C@@H](Cc1ccc(O)cc1)C(N)=O)[C@@H](C)O)C(C)C)[C@@H](C)O [Example 11, N-alpha-[(S)-4-Carboxy-4-(19-carboxynonadecanoylamino)butyryl]-[Ser17]-pramlintide (2-37)] ({C20 diacid-γGlu}-CNTATCATQRLANFLSHSSNNFGPILPPTNVGSNTY-NH2; disulfide 1-6)	0.1 nM
CC[C@H](C)[C@H](NC(=O)[C@@H]1CCCN1C(=O)CNC(=O)[C@H](Cc1ccccc1)NC(=O)[C@H](CC(N)=O)NC(=O)[C@H](CC(N)=O)NC(=O)[C@H](CO)NC(=O)[C@H](CO)NC(=O)[C@H](Cc1c[nH]cn1)NC(=O)CNC(=O)[C@H](CC(C)C)NC(=O)[C@H](Cc1ccccc1)NC(=O)[C@H](CC(N)=O)NC(=O)[C@H](C)NC(=O)[C@H](CC(C)C)NC(=O)[C@H](CCCNC(=N)N)NC(=O)[C@H](CCC(N)=O)NC(=O)[C@@H](NC(=O)[C@H](C)NC(=O)[C@@H]1CSSC[C@H](NC(=O)[C@H](CCCCN)NC(=O)[C@H](CCCNC(=N)N)NC(=O)CC[C@H](NC(=O)CCCCCCCCCCCCCCCCCCC(=O)O)C(=O)O)C(=O)N[C@@H](CC(N)=O)C(=O)N[C@@H]([C@@H](C)O)C(=O)N[C@@H](C)C(=O)N[C@@H]([C@@H](C)O)C(=O)N1)[C@@H](C)O)C(=O)N[C@@H](CC(C)C)C(=O)N1CCC[C@H]1C(=O)N1CCC[C@H]1C(=O)N[C@H](C(=O)N[C@@H](CC(N)=O)C(=O)N[C@H](C(=O)NCC(=O)N[C@@H](CO)C(=O)N[C@@H](CC(N)=O)C(=O)N[C@H](C(=O)N[C@@H](Cc1ccc(O)cc1)C(N)=O)[C@@H](C)O)C(C)C)[C@@H](C)O [Example 18, N-alpha-[(S)-4-Carboxy-4-(19-carboxynonadecanoylamino)butyryl]-Arg-[Gly17]-pramlintide] ({C20 diacid-γGlu}-RKCNTATCATQRLANFLGHSSNNFGPILPPTNVGSNTY-NH2; disulfide 3-8)	0.1 nM
CC[C@H](C)[C@H](NC(=O)[C@@H]1CCCN1C(=O)CNC(=O)[C@H](Cc1ccccc1)NC(=O)[C@H](CC(N)=O)NC(=O)[C@H](CC(N)=O)NC(=O)[C@H](CO)NC(=O)[C@H](CO)NC(=O)[C@H](Cc1c[nH]cn1)NC(=O)[C@H](Cc1c[nH]cn1)NC(=O)[C@H](CC(C)C)NC(=O)[C@H](Cc1ccccc1)NC(=O)[C@H](CC(N)=O)NC(=O)[C@H](C)NC(=O)[C@H](CC(C)C)NC(=O)[C@H](CCCNC(=N)N)NC(=O)[C@H](CCC(N)=O)NC(=O)[C@@H](NC(=O)[C@H](C)NC(=O)[C@@H]1CSSC[C@H](NC(=O)[C@H](CCC(=O)O)NC(=O)[C@H](CCC(=O)O)NC(=O)CC[C@H](NC(=O)CCCCCCCCCCCCCCCCCCC(=O)O)C(=O)O)C(=O)N[C@@H](CC(N)=O)C(=O)N[C@@H]([C@@H](C)O)C(=O)N[C@@H](C)C(=O)N[C@@H]([C@@H](C)O)C(=O)N1)[C@@H](C)O)C(=O)N[C@@H](CC(C)C)C(=O)N1CCC[C@H]1C(=O)N1CCC[C@H]1C(=O)N[C@H](C(=O)N[C@@H](CC(N)=O)C(=O)N[C@H](C(=O)NCC(=O)N[C@@H](CO)C(=O)N[C@@H](CC(N)=O)C(=O)N[C@H](C(=O)N[C@@H](Cc1ccc(O)cc1)C(N)=O)[C@@H](C)O)C(C)C)[C@@H](C)O [Example 50, N-alpha-[(S)-4-Carboxy-4-(19-carboxynonadecanoylamino)butyryl]-Glu-[Glu1,His17]-pramlintide] ({C20 diacid-γGlu}-EECNTATCATQRLANFLHHSSNNFGPILPPTNVGSNTY-NH2; disulfide 3-8)	0.3 nM
CC[C@H](C)[C@H](NC(=O)[C@@H]1CCCN1C(=O)CNC(=O)[C@H](Cc1ccccc1)NC(=O)[C@H](CC(N)=O)NC(=O)[C@H](CC(N)=O)NC(=O)[C@H](CO)NC(=O)[C@H](CO)NC(=O)[C@H](Cc1c[nH]cn1)NC(=O)[C@H](CCCNC(=N)N)NC(=O)[C@H](CC(C)C)NC(=O)[C@H](Cc1ccccc1)NC(=O)[C@H](CC(N)=O)NC(=O)[C@H](C)NC(=O)[C@H](CC(C)C)NC(=O)[C@H](CCCNC(=N)N)NC(=O)[C@H](CCC(N)=O)NC(=O)[C@@H](NC(=O)[C@H](C)NC(=O)[C@@H]1CSSC[C@H](NC(=O)[C@H](Cc2c[nH]cn2)NC(=O)[C@H](Cc2c[nH]cn2)NC(=O)COCCOCCNC(=O)CC[C@H](NC(=O)CCCCCCCCCCCCCCCCCCC(=O)O)C(=O)O)C(=O)N[C@@H](CC(N)=O)C(=O)N[C@@H]([C@@H](C)O)C(=O)N[C@@H](C)C(=O)N[C@@H]([C@@H](C)O)C(=O)N1)[C@@H](C)O)C(=O)N[C@@H](CC(C)C)C(=O)N1CCC[C@H]1C(=O)N1CCC[C@H]1C(=O)N[C@H](C(=O)N[C@@H](CC(N)=O)C(=O)N[C@H](C(=O)NCC(=O)N[C@@H](CO)C(=O)N[C@@H](CC(N)=O)C(=O)N[C@H](C(=O)N[C@@H](Cc1ccc(O)cc1)C(N)=O)[C@@H](C)O)C(C)C)[C@@H](C)O [Example 34, N-alpha-[2-(2-{2-[4-(S)-Carboxy-4-(19-carboxynonadecanoylamino)butyrylamino]ethoxy}ethoxy)acetyl]-His-[His1,Arg17]-pramlintide] ({C20 diacid-γGlu-AEEA}-HHCNTATCATQRLANFLRHSSNNFGPILPPTNVGSNTY-NH2; disulfide 3-8)	0.2 nM

Molecules with a lower EC50, results first:

EC50	SMILES
0.08 nM	CC[C@H](C)[C@H](NC(=O)[C@@H]1CCCN1C(=O)CNC(=O)[C@H](Cc1ccccc1)NC(=O)[C@H](CC(N)=O)NC(=O)[C@H](CC(N)=O)NC(=O)[C@H](CO)NC(=O)[C@H](CO)NC(=O)[C@H](Cc1c[nH]cn1)NC(=O)[C@H](Cc1c[nH]cn1)NC(=O)[C@H](CC(C)C)NC(=O)[C@H](Cc1ccccc1)NC(=O)[C@H](CC(N)=O)NC(=O)[C@H](C)NC(=O)[C@H](CC(C)C)NC(=O)[C@H](CCCNC(=N)N)NC(=O)[C@H](CCC(N)=O)NC(=O)[C@@H](NC(=O)[C@H](C)NC(=O)[C@@H]1CSSC[C@H](NC(=O)[C@H](CCCCN)NC(=O)[C@H](CCCNC(=N)N)NC(=O)CC[C@H](NC(=O)CCCCCCCCCCCCCCCCCCC(=O)O)C(=O)O)C(=O)N[C@@H](CC(N)=O)C(=O)N[C@@H]([C@@H](C)O)C(=O)N[C@@H](C)C(=O)N[C@@H]([C@@H](C)O)C(=O)N1)[C@@H](C)O)C(=O)N[C@@H](CC(C)C)C(=O)N1CCC[C@H]1C(=O)N1CCC[C@H]1C(=O)N[C@H](C(=O)N[C@@H](CC(N)=O)C(=O)N[C@H](C(=O)NCC(=O)N[C@@H](CO)C(=O)N[C@@H](CC(N)=O)C(=O)N[C@H](C(=O)N[C@@H](Cc1ccc(O)cc1)C(N)=O)[C@@H](C)O)C(C)C)[C@@H](C)O [Example 17, N-alpha-[(S)-4-Carboxy-4-(19-carboxynonadecanoylamino)butyryl]-Arg-[His17]-pramlintide] ({C20 diacid-γGlu}-RKCNTATCATQRLANFLHHSSNNFGPILPPTNVGSNTY-NH2; disulfide 3-8)
0.06 nM	CC[C@H](C)[C@H](NC(=O)[C@@H]1CCCN1C(=O)CNC(=O)[C@H](Cc1ccccc1)NC(=O)[C@H](CC(N)=O)NC(=O)[C@H](CC(N)=O)NC(=O)[C@H](CO)NC(=O)[C@H](CO)NC(=O)[C@H](Cc1c[nH]cn1)NC(=O)[C@H](Cc1c[nH]cn1)NC(=O)[C@H](CC(C)C)NC(=O)[C@H](Cc1ccccc1)NC(=O)[C@H](CC(N)=O)NC(=O)[C@H](C)NC(=O)[C@H](CC(C)C)NC(=O)[C@H](CCCNC(=N)N)NC(=O)[C@H](CCC(N)=O)NC(=O)[C@@H](NC(=O)[C@H](C)NC(=O)[C@@H]1CSSC[C@H](NC(=O)CC[C@H](NC(=O)CCCCCCCCCCCCCCCCCCC(=O)O)C(=O)O)C(=O)N[C@@H](CC(N)=O)C(=O)N[C@@H]([C@@H](C)O)C(=O)N[C@@H](C)C(=O)N[C@@H]([C@@H](C)O)C(=O)N1)[C@@H](C)O)C(=O)N[C@@H](CC(C)C)C(=O)N1CCC[C@H]1C(=O)N1CCC[C@H]1C(=O)N[C@H](C(=O)N[C@@H](CC(=O)O)C(=O)N[C@H](C(=O)NCC(=O)N[C@@H](CO)C(=O)N[C@@H](CC(N)=O)C(=O)N[C@H](C(=O)N[C@@H](Cc1ccc(O)cc1)C(N)=O)[C@@H](C)O)C(C)C)[C@@H](C)O [Example 53, N-alpha-[(S)-4-Carboxy-4-(19-carboxynonadecanoylamino)butyryl]-[His17,Asp31]-pramlintide (2-37)] ({C20 diacid-γGlu}-CNTATCATQRLANFLHHSSNNFGPILPPTDVGSNTY-NH2; disulfide 1-6)
